From article PMC12282101, “Heat shock protein 90 chaperone activity is required for hepatitis A virus replication” (Journal of Virology, 2025)
Where a name gives a salt, the structure may show the parent alone.

Key:
18f-NLuc reporter virus = assay: microbe, parasite or virus in culture; type: cell-based, Hepatitis A virus; settings: for activity at 10 µM: Hepatovirus A, Huh-7.5.1, 72 h, read-out: Normalized HAV production
Huh-7.5.1 cells = assay: Cell viability in the chemical screen (Cell TiterGlo); settings: 10 µM compound, 72 h

Compound	activity at 10 µM (18f-NLuc reporter virus) [%]	Viability Percent DMSO (Huh-7.5.1 cells) [Percent DMSO]	Normalized HAV production (18f-NLuc reporter virus)
CO[C@H]1/C=C/O[C@@]2(C)Oc3c(C)c(O)c4c(O)c(c(/C=N/N5CCN(C)CC5)c(O)c4c3C2=O)NC(=O)/C(C)=C\C=C\[C@H](C)[C@H](O)[C@@H](C)[C@@H](O)[C@@H](C)[C@H](OC(C)=O)[C@@H]1C [Rifampicin]	86	119	–
Cc1cc(C)c(Nc2ccnc(Nc3ccc(C#N)cc3)n2)c(C)c1 [Dapivirine]	14	114	–
Cc1cccc(C)c1OCC(=O)N[C@@H](Cc1ccccc1)[C@@H](O)C[C@H](Cc1ccccc1)NC(=O)[C@H](C(C)C)N1CCCNC1=O [Lopinavir]	43	126	–
Nc1ncnc2c1ncn2[C@@H]1O[C@H](CO)[C@@H](O)[C@@H]1O [Vidarabine]	104	119	–
Clc1ccc(Cn2c(CN3CCCC3)nc3ccccc32)cc1 [Clemizole]	58	166	–
CN(C)[C@@H]1C(O)=C(C(N)=O)C(=O)[C@@]2(O)C(O)=C3C(=O)c4c(O)cccc4[C@@](C)(O)[C@H]3[C@H](O)[C@@H]12 [Oxytetracycline]	87	103	–
C[C@@H]1O[C@@H](O[C@H]2[C@H](Oc3cc(O)c4c(c3)O[C@H](c3ccc(O)cc3)CC4=O)O[C@H](CO)[C@@H](O)[C@@H]2O)[C@H](O)[C@H](O)[C@H]1O [Naringin]	124	115	–
O=C(O)[C@H]1O[C@@H](Oc2cc3oc(-c4ccccc4)cc(=O)c3c(O)c2O)[C@H](O)[C@@H](O)[C@@H]1O [Baicalin]	81	114	–
C=C(C)[C@@H]1CC[C@]2(C(=O)O)CC[C@]3(C)[C@H](CC[C@@H]4[C@@]5(C)CC[C@H](O)C(C)(C)[C@@H]5CC[C@]43C)[C@@H]12 [Betulinic acid]	75	116	–
O=C1Nc2ccc(Cl)cc2[C@@](C#CC2CC2)(C(F)(F)F)O1 [Efavirenz]	46	165	–
Cc1cc(C#N)cc(C)c1Oc1nc(Nc2ccc(C#N)cc2)nc(N)c1Br [Etravirine]	113	112	–
C=C1[C@H](CO)[C@@H](O)C[C@@H]1n1cnc2c(=O)[nH]c(N)nc21 [Entecavir hydrate]	93	125	–
CC(N)C12CC3CC(CC(C3)C1)C2 (centres unmarked) [Rimantadine hydrochloride]	113	98	–
CC(=O)OCC(CCn1cnc2cnc(N)nc21)COC(C)=O [Famciclovir]	115	123	–
Cl.N=C(N=C(N)N)N1CCOCC1 [Moroxydine hydrochloride]	–	125	1.21
Cc1cnc(C(=O)N[C@H]2CCCCC/C=C\[C@@H]3C[C@@]3(C(=O)NS(=O)(=O)C3CC3)NC(=O)[C@@H]3C[C@@H](Oc4nc5ccccc5c5ccccc45)CN3C2=O)cn1 [Paritaprevir]	64	91	–
O=C(O)c1ccccc1C(=O)Nc1ccc(S(=O)(=O)Nc2nccs2)cc1 [Phthalylsulfathiazole]	83	112	–
CC1(C)[C@@H](O[C@H]2O[C@H](C(=O)O)[C@@H](O)[C@H](O)[C@H]2O[C@@H]2O[C@H](C(=O)O)[C@@H](O)[C@H](O)[C@H]2O)CC[C@]2(C)[C@H]3C(=O)C=C4[C@@H]5C[C@@](C)(C(=O)O)CC[C@]5(C)CC[C@@]4(C)[C@]3(C)CC[C@@H]12.N.N [Diammonium Glycyrrhizinate]	–	116	0.78
Cn1c(Cn2ccc(C(F)(F)F)c(Oc3cc(Cl)cc(C#N)c3)c2=O)n[nH]c1=O [Doravirine]	140	95	–
O=c1[nH]c(=O)n([C@H]2C[C@H](O)[C@@H](CO)O2)cc1/C=C/Br [Brivudine]	94	110	–
CCOC(=O)c1ccc(OCCC2CCN(c3ccc(C)nn3)CC2)cc1 [Pirodavir]	91	134	–
O=c1[nH]cc(F)c(=O)[nH]1 [Fluorouracil]	84	103	–
Cc1cc(F)c(C(=O)Nc2cccc(-c3nncn3C(C)C)n2)cc1-n1cnc(C2CC2)c1 [Selonsertib]	38	131	–
CC1(C)S[C@@H]2[C@H](NC(=O)[C@H](NC(=O)N3CCNC3=O)c3ccccc3)C(=O)N2[C@H]1C(=O)O [Azlocillin sodium]	132	98	–
CC1(C)S[C@@H]2[C@H](NC(=O)[C@H](N)c3ccccc3)C(=O)N2[C@H]1C(=O)O [Ampicillin Trihydrate]	76	116	–
O=S(=O)(CCC(F)=C(F)F)c1ncc(Cl)s1 [Fluensulfone]	–	128	0.97

Compound	activity at 10 µM (18f-NLuc reporter virus) [%]	Viability Percent DMSO (Huh-7.5.1 cells) [Percent DMSO]	Normalized HAV production (18f-NLuc reporter virus)
CC[n+]1c(-c2ccccc2)c2cc(N)ccc2c2ccc(N)cc21 [Ethidium bromide]	4.56	85	–
O=C(O[C@@H]1Cc2c(O)cc(O)cc2O[C@@H]1c1cc(O)c(O)c(O)c1)c1cc(O)c(O)c(O)c1 [(-)-Epigallocatechin Gallate]	105	125	–
C[C@H](NC(=O)C(=O)Nc1ccccc1C(C)(C)C)C(=O)N[C@@H](CC(=O)O)C(=O)COc1c(F)c(F)cc(F)c1F [Emricasan]	164	90	–
C=CC1=C(C(=O)O)N2C(=O)[C@@H](NC(=O)/C(=N\OCC(=O)O)c3csc(N)n3)[C@H]2SC1 [Cefixime]	90	109	–
CN[C@@H]1[C@H](O)[C@H](NC)[C@H]2O[C@@]3(O)C(=O)C[C@@H](C)O[C@H]3O[C@@H]2[C@H]1O.Cl.Cl [Spectinomycin dihydrochloride]	–	109	0.83
O=C(Nc1ccc(O)cc1)c1ccccc1O [Osalmid]	132	93	–
COc1cc2ncnc(Nc3cccc(Cl)c3)c2cc1OC [AG-1478]	–	164	0.51
CCS(=O)(=O)CCn1c([N+](=O)[O-])cnc1C [Tinidazole]	78	108	–
CC(C)[C@H](N)C(=O)OCCOCn1cnc2c(=O)[nH]c(N)nc21 [Valacyclovir hydrochloride]	87	117	–
CC1(C)[C@@H](O[C@H]2O[C@H](C(=O)O)[C@@H](O)[C@H](O)[C@H]2O[C@@H]2O[C@H](C(=O)O)[C@@H](O)[C@H](O)[C@H]2O)CC[C@]2(C)[C@H]3C(=O)C=C4[C@@H]5C[C@@](C)(C(=O)O)CC[C@]5(C)CC[C@@]4(C)[C@]3(C)CC[C@@H]12 [Glycyrrhizin]	79	124	–
Cc1cn([C@H]2C=C[C@@H](CO)O2)c(=O)[nH]c1=O [Stavudine]	101	101	–
Nc1nc2c(ncn2COCCO)c(=O)[nH]1 [Aciclovir]	99	110	–
CC(=O)Oc1ccccc1C(=O)Nc1ncc([N+](=O)[O-])s1 [Nitazoxanide]	24	41	–
Nc1nc(O)c2ncn(COC(CO)CO)c2n1 [Ganciclovir]	87	115	–
CC(=O)OCC(=O)[C@@]1(O)CC[C@H]2[C@@H]3CCC4=CC(=O)C=C[C@]4(C)[C@@]3(Cl)[C@@H](Cl)C[C@@]21C [Dichlorisone Acetate]	97	105	–
NC(=O)c1nc(F)c[nH]c1=O [Favipiravir]	56	128	–
C[C@@H]1CCO[C@H]2Cn3cc(C(=O)NCc4ccc(F)cc4F)c(=O)c(O)c3C(=O)N12 [Dolutegravir]	49	159	–
COc1ncnc(NS(=O)(=O)c2ccc(N)cc2)c1OC [Sulfadoxine]	69	118	–
COc1cc(O)c(CC=C(C)C)c(O)c1C(=O)/C=C/c1ccc(O)cc1 [Xanthohumol]	92	102	–
CC(C)OC(=O)[C@H](C)N[P@](=O)(OC[C@H]1O[C@@H](n2ccc(=O)[nH]c2=O)[C@](C)(F)[C@@H]1O)Oc1ccccc1 [Sofosbuvir]	38	130	–
Cc1nc(Nc2ccc(F)cc2)nc(N2CCc3ccccc3C2C)c1C (centres unmarked) [Revaprazan hydrochloride]	87	115	–
O=C(Nc1nc2ccc3scnc3c2s1)c1ccc2ccccc2c1 [KIN1148]	–	107	1.39
Cc1nnc(C(=O)NC(C)(C)c2nc(C(=O)NCc3ccc(F)cc3)c(O)c(=O)n2C)o1 [Raltegravir]	124	132	–
COc1ccc(C2CNC(=O)C2)cc1OC1CCCC1 (centres unmarked) [Rolipram]	130	113	–
Cc1cc(O)cc(C)c1Cl [Chloroxylenol]	90	108	–
CCOC(=O)c1c(C)n(C)c2ccc(O)cc12 [Mecarbinate]	–	100	1.17
